Source: US20260306527A1, “PRMT INHIBITOR COMPOUNDS AND THE USES THEREOF” (Purdue Research Foundation, priority 2023, published 2026)
“Also recorded” adds a separate entry of the source.

Legend:
Assay type in all cases: biochemical
[1] = molecular target: T1, PRMT4 (Homo sapiens, UniProt Q86X55); assay: radioactive assay (Reaction Biology Corp.), inhibition of PRMT4
T1 sequence (Q86X55 1-608): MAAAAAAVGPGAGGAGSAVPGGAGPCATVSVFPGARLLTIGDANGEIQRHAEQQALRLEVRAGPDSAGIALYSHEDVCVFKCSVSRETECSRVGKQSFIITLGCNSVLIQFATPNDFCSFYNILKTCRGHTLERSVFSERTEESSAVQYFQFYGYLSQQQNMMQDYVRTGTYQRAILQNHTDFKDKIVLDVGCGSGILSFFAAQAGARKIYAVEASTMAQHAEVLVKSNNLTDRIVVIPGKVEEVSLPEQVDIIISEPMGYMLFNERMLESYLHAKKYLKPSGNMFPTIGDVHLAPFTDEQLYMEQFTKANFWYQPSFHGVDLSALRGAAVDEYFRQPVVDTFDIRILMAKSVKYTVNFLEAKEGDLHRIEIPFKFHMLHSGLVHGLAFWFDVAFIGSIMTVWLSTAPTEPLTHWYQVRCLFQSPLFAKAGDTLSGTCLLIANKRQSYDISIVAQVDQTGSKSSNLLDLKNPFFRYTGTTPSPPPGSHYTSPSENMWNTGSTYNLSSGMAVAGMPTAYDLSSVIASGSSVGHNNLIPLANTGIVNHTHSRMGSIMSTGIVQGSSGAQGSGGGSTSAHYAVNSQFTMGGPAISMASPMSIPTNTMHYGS
Protocol: (§1) Next, the inhibition activity of the library was investigated for five PRMT members from type I PRMTs.
(§2) The PRMT 4, 6 and 8 methylation assays were performed by Reaction Biology corp.

[2] = molecular target: PRMT6 (Homo sapiens, UniProt Q96LA8); assay: radioactive assay (Reaction Biology Corp.), inhibition of PRMT6
Chain of PRMT6 (Q96LA8 whole entry, species assumed): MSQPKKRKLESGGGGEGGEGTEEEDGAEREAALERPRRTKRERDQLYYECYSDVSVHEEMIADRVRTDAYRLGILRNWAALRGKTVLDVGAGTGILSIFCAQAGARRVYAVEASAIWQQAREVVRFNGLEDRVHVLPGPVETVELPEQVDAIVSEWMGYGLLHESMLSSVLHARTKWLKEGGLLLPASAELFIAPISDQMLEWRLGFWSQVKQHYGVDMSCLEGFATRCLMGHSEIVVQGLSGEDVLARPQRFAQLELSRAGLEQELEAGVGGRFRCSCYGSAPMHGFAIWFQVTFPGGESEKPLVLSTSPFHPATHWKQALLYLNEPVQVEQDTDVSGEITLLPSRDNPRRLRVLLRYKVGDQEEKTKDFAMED
Protocol: as §1, §2

[3] = molecular target: PRMT8 (Homo sapiens, UniProt Q9NR22); assay: radioactive assay (Reaction Biology Corp.), inhibition of PRMT8
Chain of PRMT8 (Q9NR22 whole entry, species assumed): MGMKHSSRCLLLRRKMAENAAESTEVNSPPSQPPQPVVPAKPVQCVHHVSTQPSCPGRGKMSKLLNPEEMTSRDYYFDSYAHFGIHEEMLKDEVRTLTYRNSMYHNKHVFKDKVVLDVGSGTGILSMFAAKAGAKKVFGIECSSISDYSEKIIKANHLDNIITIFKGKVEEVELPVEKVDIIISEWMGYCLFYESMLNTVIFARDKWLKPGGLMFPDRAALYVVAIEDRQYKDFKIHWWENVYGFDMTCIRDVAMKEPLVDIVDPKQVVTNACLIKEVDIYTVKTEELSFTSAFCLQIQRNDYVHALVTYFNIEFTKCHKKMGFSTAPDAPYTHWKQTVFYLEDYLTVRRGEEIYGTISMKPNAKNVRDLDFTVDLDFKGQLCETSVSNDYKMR
Protocol: as §1, §2

[4] = molecular target: PRMT3 (Homo sapiens, UniProt O60678); assay: SAHH-coupled fluorescence assay, inhibition of PRMT3; design: PRMT3 (residues 211-531) was cloned into the pET28a-MHL expression vector; tag of the pET28a-MHL vector (not described); made in house; host or cells: Escherichia coli BL21(DE3)
Chain of PRMT3 (O60678 211-531): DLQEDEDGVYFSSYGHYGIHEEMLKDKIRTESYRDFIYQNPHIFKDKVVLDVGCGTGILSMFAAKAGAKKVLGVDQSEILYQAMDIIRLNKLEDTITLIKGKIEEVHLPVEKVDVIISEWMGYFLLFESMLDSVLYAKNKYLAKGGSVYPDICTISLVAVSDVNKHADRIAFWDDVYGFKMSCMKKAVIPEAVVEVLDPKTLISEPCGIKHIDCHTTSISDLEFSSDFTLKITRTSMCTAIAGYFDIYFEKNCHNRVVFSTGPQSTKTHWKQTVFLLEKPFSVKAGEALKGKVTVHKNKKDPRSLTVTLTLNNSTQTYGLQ
Protocol: (§3) A fluorescence-based SAHH-coupled assay was applied to study the inhibition activity of all synthesized compounds on PRMT 1 and 3.
(§4) The PRMT3 methylation assay was performed under the following conditions in a final well volume of 100 μL: 20 mM Tris (pH=7.5), 0.01% Triton X-100, 5 μM SAHH, 0.25 μM PRMT3, 30 μM AdoMet, and 15 μM ThioGlo4. […] Fluorescence was monitored on a BMG CLARIOstar microplate reader with excitation 380 nm and emission 505 nm. Data were processed by using GraphPad Prism software 8.0. All experiments were performed in duplicate.
as §1
as §4, with “8.0.” for “8.0. All experiments were performed in duplicate.”

[5] = molecular target: T2, PRMT1 (Homo sapiens, UniProt Q99873); assay: SAHH-coupled fluorescence assay, inhibition of PRMT1
T2 construct: made in house
T2 sequence (Q99873 whole entry, species assumed): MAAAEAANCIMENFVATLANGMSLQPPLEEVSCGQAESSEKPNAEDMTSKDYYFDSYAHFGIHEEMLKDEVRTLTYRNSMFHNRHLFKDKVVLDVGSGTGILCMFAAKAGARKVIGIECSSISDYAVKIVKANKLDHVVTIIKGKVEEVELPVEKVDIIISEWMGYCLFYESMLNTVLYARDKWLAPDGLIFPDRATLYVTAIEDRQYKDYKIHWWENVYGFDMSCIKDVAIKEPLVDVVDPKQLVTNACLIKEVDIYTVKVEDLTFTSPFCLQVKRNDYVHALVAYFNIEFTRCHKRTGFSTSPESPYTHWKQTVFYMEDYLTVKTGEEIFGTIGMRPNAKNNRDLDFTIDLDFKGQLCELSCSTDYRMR
Protocol: as §3
(§5) The PRMT1 methylation assay was performed under the following conditions in a final well volume of 100 μL: 2.5 mM HEPES (pH=7.0), 25 mM NaCl, 25 μM EDTA, 50 μM TCEP, 0.01% Triton X-100, 5 μM SAHH, 0.1 μM PRMT1, 10 μM AdoMet, and 10 μM ThioGlo4. […] The fluorescence signal was monitored on a BMG CLARIOstar microplate reader with excitation at 400 nm and emission at 465 nm for 15 min. Data were processed using GraphPad Prism software 8.0.
as §1
as §5, with “A fluorescence-based SAHH-coupled assay was applied to determine the inhibition activity of all synthesized compounds on PRMT 1 and 3. The PRMT1” for “The PRMT1”, “software 8.0. All experiments were performed in duplicate.” for “software 8.0.”

Compound | inhibition at 10 µM [1] [%] | inhibition at 10 µM [2] [%] | inhibition at 10 µM [3] [%] | inhibition at 10 µM [4] [%] | inhibition at 10 µM [5] [%] | PRMT4 inhibition [1] | PRMT6 inhibition ([2]; 10 μM)
Nc1cccc(-c2ccc(CNC(=O)NCCSC[C@H]3O[C@@H](n4cnc5c(N)ncnc54)[C@H](O)[C@@H]3O)cc2)c1 [Compound 8b] | 43 | 79 | 0 | 5 | 7 | – | –
Nc1ncnc2c1ncn2[C@@H]1O[C@H](CSCCNC(=O)NCc2ccc(-c3ccc(O)cc3)cc2)[C@@H](O)[C@H]1O [Compound 8c] | 42 | 82 | 3 | 10 | 21 | – | –
Nc1ncnc2c1ncn2[C@@H]1O[C@H](CSCCNC(=O)NCc2ccc(-c3cccc(O)c3)cc2)[C@@H](O)[C@H]1O [Compound 8d] | 37 | 88 | 15 | 9 | 22 | – | –
Nc1ncnc2c1ncn2[C@@H]1O[C@H](CSCCNC(=O)NCc2ccc(-c3ccccc3O)cc2)[C@@H](O)[C@H]1O [Compound 8e] | 53 | -2 | -2 | 13 | 11 | – | –
Nc1ncnc2c1ncn2[C@@H]1O[C@H](CSCCNC(=O)NCc2ccc(-c3cc[nH]n3)cc2)[C@@H](O)[C@H]1O [Compound 8f] | 17 | -6 | 2 | 9 | 27 | – | –
Nc1ncnc2c1ncn2[C@@H]1O[C@H](CSCCNC(=O)NCc2ccc(-c3cn[nH]c3)cc2)[C@@H](O)[C@H]1O [Compound 8g] | 19 | 5 | 5 | 10 | 2 | – | –
Nc1ncnc2c1ncn2[C@@H]1O[C@H](CSCCNCc2cccc(-c3ccc(Cl)cc3)c2)[C@@H](O)[C@H]1O [Compound 10a] | 99 | 57 | 71 | 16 | 16 | equal potency on PRMT4; also recorded: more potent PRMT4 inhibition activity than SGC8158 | –
Nc1ncnc2c1ncn2[C@@H]1O[C@H](CSCCNCc2cccc(-c3ccc(O)cc3)c2)[C@@H](O)[C@H]1O [Compound 10b] | 100 | 55 | 67 | 1 | 19 | – | –
Nc1ncnc2c1ncn2[C@@H]1O[C@H](CSCCNCc2cccc(-c3cccc(F)c3)c2)[C@@H](O)[C@H]1O [Compound 10c] | 100 | 49 | 68 | 12 | 11 | – | –
Nc1ncnc2c1ncn2[C@@H]1O[C@H](CSCCNCc2cccc(-c3ccc(C(F)(F)F)cc3)c2)[C@@H](O)[C@H]1O [Compound 10e] | 99 | 57 | 67 | 15 | 2 | – | –
Nc1ncnc2c1ncn2[C@@H]1O[C@H](CSCCNCc2cccc(-c3ccc(F)c(O)c3)c2)[C@@H](O)[C@H]1O [Compound 10f] | 99 | 54 | 80 | 20 | 7 | – | –
Nc1ncnc2c1ncn2[C@@H]1O[C@H](CSCCNCc2cccc(-c3cccc4cn[nH]c34)c2)[C@@H](O)[C@H]1O [Compound 10h] | 100 | 82 | 58 | 12 | 1 | – | –
Nc1ncnc2c1ncn2[C@@H]1O[C@H](CSCCNCc2cccc(-c3cccc(O)c3)c2)[C@@H](O)[C@H]1O [Compound 10i] | 100 | 55 | 74 | 13 | 15 | – | –
Nc1ncnc2c1ncn2[C@@H]1O[C@H](CSCCNCc2cccc(-c3ccccc3O)c2)[C@@H](O)[C@H]1O [Compound 10j] | 99 | 43 | 56 | 10 | 25 | – | –
Nc1ncnc2c1ncn2[C@@H]1O[C@H](CSCCNCc2cccc(-c3ccncc3)c2)[C@@H](O)[C@H]1O [Compound 10k] | 99 | 43 | 69 | 10 | 15 | – | –
Nc1cccc(-c2cccc(CNCCSC[C@H]3O[C@@H](n4cnc5c(N)ncnc54)[C@H](O)[C@@H]3O)c2)c1 [Compound 10l] | 100 | 53 | 62 | 8 | 7 | – | –
Nc1ncnc2c1ncn2[C@@H]1O[C@H](CSCCCNCc2cccc(-c3ccc(O)cc3)c2)[C@@H](O)[C@H]1O [Compound 10n] | 96 | 36 | 69 | 21 | 57 | – | –
Nc1ncnc2c1ncn2[C@@H]1O[C@H](CSCCCNCc2cccc(-c3ccc(C(F)(F)F)cc3)c2)[C@@H](O)[C@H]1O [Compound 10o] | 97 | 37 | 65 | 24 | 71 | – | –
Nc1ncnc2c1ncn2[C@@H]1O[C@H](CSCCCNCc2cccc(-c3ccoc3)c2)[C@@H](O)[C@H]1O [Compound 10p] | 99 | 66 | 54 | 25 | 54 | – | –
Nc1ncnc2c1ncn2[C@@H]1O[C@H](CSCCCNCc2cccc(-c3cccc(F)c3)c2)[C@@H](O)[C@H]1O [Compound 10q] | 97 | 36 | 66 | 25 | 63 | – | –
Nc1ncnc2c1ncn2[C@@H]1O[C@H](CSCCCNCc2cccc(-c3ccc(F)c(O)c3)c2)[C@@H](O)[C@H]1O [Compound 10r] | 95 | 74 | 72 | 22 | 52 | – | –
Nc1ncnc2c1ncn2[C@@H]1O[C@H](CSCCCNCc2cccc(-c3cccc4cn[nH]c34)c2)[C@@H](O)[C@H]1O [Compound 10t] | 99 | 87 | 72 | 22 | 69 | – | –
COc1cc2nc(-c3ccc(Cl)cc3)nc(NCCSC[C@H]3O[C@@H](n4cnc5c(N)ncnc54)[C@H](O)[C@@H]3O)c2cc1OC [Compound 12a] | 69 | 85 | 23 | 4 | 1 | – | selective inhibition to PRMT6
